Measurements taken from paper PMC5344920, “Drug Repurposing of the Anthelmintic Niclosamide to Treat Multidrug-Resistant Leukemia” (Frontiers in Pharmacology, 2017).

Target: T1, recombinant human GS (GSH synthetase, glutathione synthetase) (Homo sapiens, UniProt P48637)
T1 construct: gene GSS; commercial recombinant protein (Abcam, Cambridge, UK), labelled on amines with BLUE-NHS dye
T1 sequence (P48637 2-474): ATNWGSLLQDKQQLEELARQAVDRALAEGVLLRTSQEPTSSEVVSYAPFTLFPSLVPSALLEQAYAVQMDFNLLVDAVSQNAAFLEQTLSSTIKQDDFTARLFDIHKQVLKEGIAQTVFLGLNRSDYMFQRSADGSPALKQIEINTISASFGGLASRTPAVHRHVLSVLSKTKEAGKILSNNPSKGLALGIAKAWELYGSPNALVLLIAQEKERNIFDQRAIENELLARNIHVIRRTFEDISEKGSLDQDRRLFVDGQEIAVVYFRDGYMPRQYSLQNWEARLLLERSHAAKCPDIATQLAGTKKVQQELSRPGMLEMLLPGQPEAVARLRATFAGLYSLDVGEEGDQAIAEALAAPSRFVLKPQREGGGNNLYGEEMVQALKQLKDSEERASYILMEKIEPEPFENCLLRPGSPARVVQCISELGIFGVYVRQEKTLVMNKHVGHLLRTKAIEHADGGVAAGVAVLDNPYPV
Assay: microscale thermophoresis, BLUE-NHS labelled protein
Details: read-out: equilibrium binding constant

Kd: 5.64 µM
Compound: O=C(Nc1ccc([N+](=O)[O-])cc1Cl)c1cc(Cl)ccc1O [niclosamide]
